Assay results published in PubChem BioAssay (NCI).
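Following 48 hours of exposure in 96-well plates, responses at five concentrations were used to interpolate endpoints linearly. Definition used: TGI = concentration required for complete inhibition of growth.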

Experiments:
Experiment in all cases: NCI-60 cell line screen, 48 h
SF-268 CNS = test system: SF-268 CNS
UACC-257 melanoma = test system: UACC-257 melanoma
OVCAR-3 ovarian = test system: OVCAR-3 ovarian
RPMI-8226 leukemia = test system: RPMI-8226 leukemia
NCI-H522 lung = test system: NCI-H522 lung
NCI-H23 lung = test system: NCI-H23 lung
SF-295 CNS = test system: SF-295 CNS
ACHN renal = test system: ACHN renal
SNB-19 CNS = test system: SNB-19 CNS
UACC-62 melanoma = test system: UACC-62 melanoma
XF 498 CNS = test system: XF 498 CNS
IGROV1 ovarian = test system: IGROV1 ovarian
SK-MEL-2 melanoma = test system: SK-MEL-2 melanoma
SNB-75 CNS = test system: SNB-75 CNS
SNB-78 CNS = test system: SNB-78 CNS
KM12 colon = test system: KM12 colon
HOP-62 NSCLC = test system: HOP-62 NSCLC
LOX IMVI melanoma = test system: LOX IMVI melanoma
HOP-18 NSCLC = test system: HOP-18 NSCLC
SN12C renal = test system: SN12C renal
UO-31 renal = test system: UO-31 renal
COLO 205 colon = test system: COLO 205 colon
SR leukemia = test system: SR leukemia
HT29 colon = test system: HT29 colon
U251 CNS = test system: U251 CNS
NCI-H226 lung = test system: NCI-H226 lung
LXFL 529 NSCLC = test system: LXFL 529 NSCLC
M14 melanoma = test system: M14 melanoma
DMS 273 small cell lung = test system: DMS 273 small cell lung
CCRF-CEM leukemia = test system: CCRF-CEM leukemia
NCI-H460 lung = test system: NCI-H460 lung
HOP-92 NSCLC = test system: HOP-92 NSCLC
TK-10 renal = test system: TK-10 renal
EKVX NSCLC = test system: EKVX NSCLC
OVCAR-8 ovarian = test system: OVCAR-8 ovarian
786-0 renal = test system: 786-0 renal
HCC-2998 colon = test system: HCC-2998 colon
K-562 leukemia = test system: K-562 leukemia
A549 NSCLC = test system: A549 NSCLC
RXF 393 renal = test system: RXF 393 renal
MOLT-4 leukemia = test system: MOLT-4 leukemia
SW-620 colon = test system: SW-620 colon
HCT-116 colon = test system: HCT-116 colon
SF-539 CNS = test system: SF-539 CNS
MALME-3M melanoma = test system: MALME-3M melanoma
SK-MEL-28 melanoma = test system: SK-MEL-28 melanoma
DLD-1 colon = test system: DLD-1 colon
HL-60(TB) leukemia = test system: HL-60(TB) leukemia
KM20L2 colon = test system: KM20L2 colon
SK-OV-3 ovarian = test system: SK-OV-3 ovarian
DMS 114 small cell lung = test system: DMS 114 small cell lung
HCT-15 colon = test system: HCT-15 colon
CAKI-1 renal = test system: CAKI-1 renal
OVCAR-4 ovarian = test system: OVCAR-4 ovarian
SK-MEL-5 melanoma = test system: SK-MEL-5 melanoma
M19-MEL melanoma = test system: M19-MEL melanoma
OVCAR-5 ovarian = test system: OVCAR-5 ovarian

Measured: TGI

Cn1cc(NC(=O)[C@H]2CCC(N)=N2)cc1C(=O)NCCC(=N)N
not listed: HCT-15 colon | CAKI-1 renal | OVCAR-4 ovarian | SK-MEL-5 melanoma | M19-MEL melanoma | OVCAR-5 ovarian
> 100 µM: all other assays above

CC1=CC2CCC1(C)C/C2=C(/C)OC=O (stereo unspecified)
not listed: HCC-2998 colon | MALME-3M melanoma
> 100 µM: all other assays above
